In experiment [1] the test system is alpha-smooth muscle actin. As to the kind of experiment: Western blot of TGF-β1 activated rabbit corneal keratocytes: alpha-smooth muscle actin. Format: cell-based. Conditions: TGF-β1 (10 ng/ml)+1% FBS, two days, compared to controls with no treatment. Here is the method: (§1) FIGS. 19A and 19B. Western blot analyses: Rabbit corneal keratocytes were isolated and cultured in serum-free DMEM/F12 into 60 mm tissue culture dishes. After 24 hrs of incubation, the media were replaced with DMEM/F12 medium containing TGF-β1(10 ng/ml)+1% FBS without (control) or with EP or EP-derivatives for two days. The cells were extracted in RIPA buffer and the extracts containing 5 μg of total proteins were loaded per lane for Western blot analysis.
(§2) Keratocytes or fibroblasts grown under different culture conditions were extracted in RIPA buffer (9.1 mM dibasic sodium phosphate, 1.7 mM monobasic sodium phosphate, 150 mM NaCl, pH, 7.4, 1% Nonidet P-40, 0.5% sodium deoxycholate, 0.1% SDS, 0.03 TIU/mL aprotinin, 1 mM sodium orthovanadate, and 100 μg/mL phenylmethylsulfonyl fluoride (PMSF)). Aliquots of cell extracts containing 50 or 100 μg protein were subjected to SDS-PAGE. Protein bands on SDS-PAGE were electrophoretically transferred to IMMOBILON-P™ membrane (Millipore Corp., Bedford, Mass.), stained with 0.1% Coomassie blue 250 in 40% methanol/1% acetic acid for 1 minute, destained one to three times with 50% methanol/1% acetic acid, scanned for densitometric comparisons of relative concentrations of proteins per lane, destained with methanol, and subjected to Western blot analysis. Immunoreactive bands were detected using chemiluminescence Western chemiluminescence reagents.
(§3) As described in Example 1, corneal stromal cells were isolated from rabbit corneas and cultured using the same procedures. The keratocytes in serum free media were treated with b-FGF (40 ng/ml)+HS (5 μg/ml) with or without 15 mM EP or 1, 2.5 or 5 mM following EP derivatives: 2-oxopropionic acid 3-methoxyphenyl ester, 2-oxopropionic acid 2-ethoxyethyl ester, 2-oxopropionic acid 2-chloroethyl ester, 2-oxopropionic acid isopropyl ester, 2-oxopropionic acid butyl ester, 2-oxopropionic acid p-tolyl ester, 2-oxopropionic acid tert-butyl ester. […] The relative levels of the expression of specific proteins were analyzed by Western blot analyses of the cell lysates as described supra.

The subject of experiment [2] is type III collagen, tenascin and fibronectin. Put plainly: Western blot of TGF-β1 activated rabbit corneal keratocytes: type III collagen, tenascin, fibronectin. Format: cell-based. Conditions: TGF-β1 (10 ng/ml)+1% FBS, two days, compared to controls with no treatment. On the procedure:
as §1, §2, §3

“Also recorded” adds a separate entry of the source.

The record followed here is US8815946B2, “Inhibition of proliferation and fibrotic response of activated corneal stromal cells” (University of Pittsburgh—of the Commonwealth System of …, priority 2008, dated 2014).

For the molecule `CC(=O)C(=O)OCCCl` [2-oxopropionic acid 2-chloroethyl ester], the “alpha-smooth muscle actin levels (Western blot)” value in experiment [1] is on record as “reduced expression; also recorded: reduced levels”. Further, the “levels of type III collagen, tenascin and fibronectin (Western blot)” value in experiment [2] was “reduced levels”.
In the same order, the values of `CC(=O)C(=O)Oc1ccc(C)cc1` [2-oxopropionic acid p-tolyl ester] are “reduced expression; also recorded: reduced levels” and “reduced levels”.
